Among the data in patent publication US10590121B2, “Kinase inhibitors and methods for making and using” (Rigel Pharmaceuticals, Inc., priority 2017, dated 2020) are EC50 values, retold here.

One may read the EC50 as the concentration that produces a half-maximal response.

Assay [1] relates to LPS induced IL-23 (p19/p40) in DC cells differentiated from human PBMC. The experiment in a line: IL23-p19 ELISA, dendritic cells (DC differentiated from human PBMC), IFNγ primed, LPS stimulated. In kind it is cell-based. As to conditions: human PBMC-derived dendritic cells, 1 μg/ml LPS, 18 hours, 10 pt. How it is done: Compound Screening Using DC Cells
1. Differentiation of PBMC's to DC Cells:
Human PBMC cells (400 million) obtained from the vendor were transferred into a T-175 flask containing 15 ml RPMI media (10% FBS) and incubate for 2 hours at 37° C. After 2 hours, the media including floating cells was aspirated out carefully and 12 ml of fresh RPMI media (10% FBS) containing GMCSF (100 ng/ml) and IL4 (20 ng/ml) was added, and the flask was kept in a 37° C. incubator for 7 days.
After 3 days, fresh GMCSF (100 ng/ml) and IL4 (20 ng/ml) were added to the flask and the incubation continued. After 7 days, the fully differentiated cells were harvested by spinning down (1200 rpm/5 min) and aspirating the media. The cells were suspended in fresh RPMI media (10% FBS) containing 50 ng/ml IFNγ (1000 U/ml) and then plated (50K/well in 100 μl) onto a white clear bottom 96 well plate and left in a 37° C. incubator for 24 hours.
2. Addition of Compounds:
After 24 hours incubation, 100 μl of RPMI media was added containing 2× concentrated test compound per well to the above cell-culture media (final concentration becomes 1×) and the plates were pre-incubated for 1 hour at 37° C. before stimulating with LPS.
After 1 hour compound pre-incubation, 10 μl per well of 20× concentrated LPS solution in RPMI media was added to give a final concentration of 1 μg/ml. The mixture was shaken and incubated the plates at 37° C. for an additional 18 hours.
155 μl of the supernatant was harvested from each well carefully (without the tip touching the bottom of the well) and to the remaining 50 μl/well of the cell culture plate was added 50 μl of Cell Titer Glo reagent. The mixture was incubated for 1-2 minutes on a shaker and the plate was read for luminescence intensity to determine the compound cytotoxicity. The cell culture supernatant collected above was used to carry out IL23 ELISA (65 μl-Supernatant) and IL10 ELISA (90 μl-Supernatant) as described below.
Human IL-23 (p19/p40) ELISA Protocol (e-Biosciences)
To 10.5 ml PBS add 50 μl of anti-IL23 (p19) was added capture antibody (2.5 μg/ml). The mixture was mixed well and 100 μl of the coating solution was added to each well of the 96 well white plates from Pierce. The wells were covered and incubated overnight at 4° C.
The anti-IL23 (p19)-antibody-coated plates were washed 2× using TBST (use plate washer) and blocked using 200 μl of 0.5% Casein for 1.5-2 hours at room temperature with shaking.
The plates were washed 2× using TBST and the supernatant was transferred (65 μl/well) to the above pre-blocked/IL23 (p19)-antibody-coated 96 well plate, and incubated at room temperature for 1.5 hours with shaking.
The plates were washed 4× using TBST (plate washer) and 100 μl/well detection antibody solution prepared from 2 μl of biotin labeled anti-IL-12 (p40/p70) antibody in 11 ml 1% BSA/PBS solution (1-5000 dilution) was added. The plates were incubated for 1 hour with shaking at room temperature.
Again, the plates were washed 4× with TBST and 100 μl of HRP labeled Streptavidin (R&D Systems) solution (10 μl/10 ml 1% BSA solution) was added, and the plates were incubated at room temperature for another 45 minutes with shaking.
After 45 minutes, the plates were washed with TBST 4× and 100 ul/well Super Signal ELISA Pico Chemiluminescent Substrate from Pierce (3.5 ml A+3.5 ml B+3.5 ml MQ water) was added. The plates were shaken for 1-2 minutes then read on a plate reader.
In general terms: ELISA stands for enzyme-linked immunosorbent assay.

In assay [2] the test system is LPS induced IL23p19 in THP-1 cells. The experiment in a line: LPS Induced IL23p19 in THP-1 Cells (with IFNγ Primed) Assay. As to conditions: Homo sapiens; THP-1 cells primed with IFNγ 50 ng/mL, 1 μg/mL LPS, 18 hours, 10 pt; read-out: IL23-p19 ELISA, THP1-IFNy, LPS, 10 pt EC50. In kind it is cell-based. An excerpt:
LPS Induced IL23p19 in THP-1 Cells (with IFNγ Primed) Assay
THP-1 Cells (ATCC, Cat # TIB-202), Dimethyl Sulfoxide (DMSO) (Sigma-Aldrich, Cat # D2650), RPMI 1640 (Cellgro, Cat #10-040-CM), Fetal Bovine Serum (Sigma, Cat # F4135), Albumin From Bovine Serum (BSA) (Sigma-Aldrich, Cat # A7906), LPS (Serotype K-235, Sigma, Product Number L 2143), IFNγ (Peprotech, Cat #300-02), Capture antibody: Human IL-23p19 ELISA (e-Bioscience, Cat. #14-7238-85), Detection antibody: Primary Mouse Biotinylated anti-human IL-12 (p40/p70) (e-Bioscience, Cat. #13-7129-85), Secondary HRP-conjugated Streptavidin (R&D Systems, Cat # DY998), 1×PBST Washing Buffer (PBS-Tween tablet) (VWR International, Cat #80058-558), ELISA Blocking Buffer (PBS with 1% BSA), ELISA Dilution Buffer (PBS with 1% BSA), 384 Well Flat-Bottom, MaxiSorp Black Immuno Plates (Thermo Scientific, Cat #12-565-346), 384 Well Flat-Bottom, White Tissue Culture Plates (Thermo Scientific, Cat #12-565-343), Super Signal ELISA Pico Chemiluminescent Substrate (Thermo Scientific, Cat #37070), Cell Titer Glo reagent (Promega, Cat # G7573), Positive control, IKK2VI inhibitor (Calbiochem, Cat #401483), AquaMax 4000 plate washer (Molecular Devices), Luminometer, Wallac Victor2 1420 Multilabel Counter.
On day 1, 50K/well THP-1 cells were seeded and primed with IFNγ (50 ng/mL) in 384-well plates for about 18 hours in RPMI media with 10% FBS. On day 2, the compound was serially diluted in DMSO from 5 mM in 3-fold dilutions, and then diluted 1:125 in RPMI media with 10% FBS. 50 μL/well 2× compound was added to 50 μL/well THP-1 cells (with IFNγ primed) in duplicate in 384 well tissue culture plates. The cells were pre-incubated with compound for 1 hour at 37° C., 5% CO2 before addition of 10 μL/well 11×LPS to give a final concentration of 1 μg/mL LPS. Day 3, after stimulation for 18 hours at 37° C., 5% CO2, the assay plate was centrifuged and 70 μL/well supernatant was harvested. IL-23p19 protein in 70 μL/well of supernatant was measured by sandwich ELISA, and 25 μl/well Cell Titer Glo reagent was added to the remaining cells to measure compound toxicity.
Human IL-23p19 Sandwich ELISA:
Maxisorp immuno ELISA plates were pre-coated with 25 μL/well of anti-IL-23p19 capture antibody (2.5 ug/mL) in PBS overnight at room temperature. After washing with 1×PBST, the plates were blocked using 100 μL/well of 1% BSA in PBS for 2 hours at room temperature. The plates were washed three times with 1×PBST and 70 μL/well supernatant were added. The plates were incubated at room temperature for 2 hours with shaking and washed three times with 1×PBST. 25 μL/well of biotin labeled anti-IL-12 (p40/p70) detection antibody (100 ng/mL) in PBS with 1% BSA was added and the plates were incubated at room temperature for 2 hours with shaking. After washing three times with 1×PBST, 25 μL/well of streptavidin-HRP (1:200) in PBS with 1% BSA was added and the plates were incubated at room temperature for 20 minutes with shaking. The plates were washed three times with 1×PBST and 25 μL/well of Super Signal ELISA Pico Chemiluminescent Substrate were added. The plates were read with a luminometer, and the chemiluminescence values were entered into Athena (Rigel) for curve fitting, EC50 calculation, and database storage.

The structures appear in SMILES notation.

Take `O=C(Nc1ccc(N2CCOCC2)cc1N1CCOCC1)c1ccc(-c2cn[nH]c2)o1` [I-14, N-(2,4-dimorpholinophenyl)-5-(1H-pyrazol-4-yl)furan-2-carboxamide]: the values for the concentration for a half-maximal effect (EC50) in assay [1] and in assay [2] were 1920 nM and 178 nM, respectively.

Regarding `O=C(Nc1ccc(N2CCOCC2)cc1N1CCOCC1)c1csc(-c2cn[nH]c2)n1` [I-15, N-(2,4-dimorpholinophenyl)-2-(1H-pyrazol-4-yl)thiazole-4-carboxamide], the figures for the 50% effective concentration (EC50) in assay [1] and in assay [2] were 484 nM and 173 nM, respectively.

Turning to `CC1(O)CCN(c2cc(N3CCOCC3)ccc2NC(=O)c2cccc(-c3cn[nH]c3)n2)CC1` [I-16, N-(2-(4-hydroxy-4-methylpiperidin-1-yl)-4-morpholinophenyl)-6-(1H-pyrazol-4-yl)picolinamide], the results for the EC50 in assay [1] and in assay [2] were 1720 nM and 740 nM, respectively.

For `CC1(O)CCN(c2cc(N3CCOCC3)ccc2NC(=O)c2ccc(-c3cn[nH]c3)o2)CC1` [I-17, N-(2-(4-hydroxy-4-methylpiperidin-1-yl)-4-morpholinophenyl)-5-(1H-pyrazol-4-yl)furan-2-carboxamide], the values for the concentration for a half-maximal effect (EC50) in assay [1] and in assay [2] were 166 nM and 216 nM, respectively.

`CC1(O)CCN(c2cc(N3CCOCC3)ccc2NC(=O)c2csc(-c3cn[nH]c3)n2)CC1` [I-18, N-(2-(4-hydroxy-4-methylpiperidin-1-yl)-4-morpholinophenyl)-2-(1H-pyrazol-4-yl)thiazole-4-carboxamide]: the EC50 is 106 nM in assay [1] and 95.1 nM in assay [2].

With `O=C(Nc1ccc(N2CCOCC2)cc1N1CCC(F)(F)CC1)c1ccc(-c2cn[nH]c2)o1` [I-20, N-(2-(4,4-difluoropiperidin-1-yl)-4-morpholinophenyl)-5-(1H-pyrazol-4-yl)furan-2-carboxamide], the figures for the EC50 in assay [1] and in assay [2] were 1120 nM and 2330 nM, respectively.

Take `O=C(Nc1ccc(N2CCOCC2)cc1N1CCC(F)(F)CC1)c1csc(-c2cn[nH]c2)n1` [I-21, N-(2-(4,4-difluoropiperidin-1-yl)-4-morpholinophenyl)-2-(1H-pyrazol-4-yl)thiazole-4-carboxamide]: the EC50 in assay [1] came to 1000 nM; in assay [2] it was 465 nM.

As to `O=C(Nc1ccc(N2CCOCC2)cc1N1CCCC1)c1cccc(-c2cn[nH]c2)n1` [I-22, N-(4-morpholino-2-(pyrrolidin-1-yl)phenyl)-6-(1H-pyrazol-4-yl)picolinamide], the EC50 in assay [1] amounted to 16400 nM; in assay [2], 3230 nM.

Consider `O=C(Nc1ccc(N2CCOCC2)cc1N1CCCC1)c1ccc(-c2cn[nH]c2)o1` [I-23, N-(4-morpholino-2-(pyrrolidin-1-yl)phenyl)-5-(1H-pyrazol-4-yl)furan-2-carboxamide], for which the values for the EC50 in assay [1] and in assay [2] were 2270 nM and 2860 nM, respectively.

For `O=C(Nc1ccc(N2CCOCC2)cc1N1CCCC1)c1csc(-c2cn[nH]c2)n1` [I-24, N-(4-morpholino-2-(pyrrolidin-1-yl)phenyl)-2-(1H-pyrazol-4-yl)thiazole-4-carboxamide], the values for the EC50 in assay [1] and in assay [2] were 794 nM and 836 nM, respectively.

As to `O=C(Nc1cc(N2CCOCC2)ccc1N1CCCCC1)c1ccc(-c2cn[nH]c2)o1` [I-25, N-(5-morpholino-2-(piperidin-1-yl)phenyl)-5-(1H-pyrazol-4-yl)furan-2-carboxamide], the EC50 in assay [1] amounted to 532 nM; in assay [2], 645 nM.

In the case of `O=C(Nc1cc(N2CCOCC2)ccc1N1CCCCC1)c1csc(-c2cn[nH]c2)n1` [I-26, N-(5-morpholino-2-(piperidin-1-yl)phenyl)-2-(1H-pyrazol-4-yl)thiazole-4-carboxamide], the EC50 in assay [1] is 847 nM; in assay [2] it was 554 nM.

Regarding `O=C(Nc1cc(OCCN2CCOCC2)ccc1N1CCCCC1)c1cccc(-c2cn[nH]c2)n1` [I-27, N-(5-(2-morpholinoethoxy)-2-(piperidin-1-yl)phenyl)-6-(1H-pyrazol-4-yl)picolinamide], the EC50 in assay [1] is 857 nM; in assay [2] it was 2990 nM.

Take `O=C(Nc1cc(OCCN2CCOCC2)ccc1N1CCCCC1)c1ccc(-c2cn[nH]c2)o1` [I-28, N-(5-(2-morpholinoethoxy)-2-(piperidin-1-yl)phenyl)-5-(1H-pyrazol-4-yl)furan-2-carboxamide]: the EC50 in assay [1] is 63.8 nM; in assay [2] it was 189 nM.

Regarding `O=C(Nc1cc(OCCN2CCOCC2)ccc1N1CCCCC1)c1csc(-c2cn[nH]c2)n1` [I-29, N-(5-(2-morpholinoethoxy)-2-(piperidin-1-yl)phenyl)-2-(1H-pyrazol-4-yl)thiazole-4-carboxamide], the results for the EC50 in assay [1] and in assay [2] were 51.2 nM and 105 nM, respectively.

Consider `O=C(Nc1cc(CCN2CCOCC2)c(F)cc1N1CCCCC1)c1ccc(-c2cn[nH]c2)o1` [I-31, N-(4-fluoro-5-(2-morpholinoethyl)-2-(piperidin-1-yl)phenyl)-5-(1H-pyrazol-4-yl)furan-2-carboxamide], for which the EC50 in assay [1] was 63.8 nM; in assay [2], 17200 nM.
